Tests used:
[1] = tested on: BRCA-wild type MDA-MB-231 cells; test: Anti-proliferation experiment on MDA-MB-231 CTG cells; format: cell-based; details: Homo sapiens, MDA-MB-231, 72 h; 3 days incubation, CellTiter-Glo
Method: Experimental Example 3: Anti-Proliferation Experiment on MDA-MB-231 CTG Cells
Experimental materials: test compounds; R DMEM medium; fetal bovine serum; penicillin/streptomycin antibiotic; MDA-MB-231 cell line; Envision multi-label analyzer.
MDA-MB-231 cells were seeded in a white 96-well plate by adding 80 μL of cell suspension (containing 5000 MDA-MB-231 cells) to each well. The cell plate was incubated in a CO2 incubator overnight.
Eight concentration points were set for each compound, test compounds were serially 3-fold diluted to the 8th concentration with a multichannel pipette, i.e. from 2 mM to 920 nM, and a duplicate well experiment was performed. 78 μL of medium was added to a intermediate plate, 2 μL of each of serially diluted compounds was transferred to corresponding wells of the intermediate plate, and after mixing, the mixture was transferred to the cell plate at 20 μL per well. The cell plate was incubated in a CO2 incubator for 3 days. Another cell plate was provided for reading signal values on the day of compound addition and these signal values were used as Max values in data analysis. Promega CellTiter-Glo was added to this cell plate at 25 μL per well and the luminescence signals were stabilized by incubation for 10 min at room temperature. Readings were taken using a PerkinElmer Envision multi-marker analyzer.
Promega CellTiter-Glo was added to the cell plate at 25 μL per well and the luminescence signals were stabilized by incubation for 10 min at room temperature. Readings were taken using a PerkinElmer Envision multi-marker analyzer.
Data analysis: the original data was converted to inhibition using the equation (sample−Min)/(Max−Min)×100%, and the IC50 value was then curve fitted using four parameters (obtained from the “log(inhibitor) vs. response-variable slope” model in GraphPad Prism). Table 1 provides the inhibitory activity of the compounds disclosed herein against MDA-MB-231 cell proliferation.

PARylation = PARylation inhibition in Lovo cells (H2O2 stimulated, anti-PAR antibody); format: cell-based; details: Homo sapiens, 25 mM H2O2
Method: Experimental Example 4: Anti-Proliferation Experiment on PARylation
Experimental materials: test compounds; F12K medium; Lovo cells; Anti-Poly (ADP-ribose) mouse monoclonal antibody; FITC-labeled goat anti-mouse IgG; hydrogen peroxide; DAPI; PBS; methanol; acetone; Tween-20; skimmed milk powder; Envision multi-marker analyzer.
Day one: Lovo cells were plated on a plate at 60,000 cells/well, and then incubated overnight at 37° C./5% CO2.
Day two: reagents were prepared: • 1. Washing solution: Tween-20 was added to 1-fold PBS, and the final concentration of Tween-20 was 0.05%. • 2. Blocking solution: skimmed milk powder was added to the washing solution, and the final concentration of skimmed milk powder was 5%. • 3. Cell stationary solution: methanol and acetone were mixed in a ratio of 7:3.
Preparation of test compounds: compound intermediate plate 1: compounds were diluted to final concentrations of 10 μM to 0.13 nM with DMSO and PBS, and the concentration of DMSO was 1%. Compound intermediate plate 2: compounds were diluted to final concentrations of 10 μM to 0.13 nM with DMSO and PBS containing 50 mM hydrogen peroxide, and the concentration of DMSO was 1%.
1. Cell supernatant was removed, and compound was transferred from the compound intermediate plate 1 to the cell plate at 40 μL per well, and the mixture was incubated at 37° C. for 30 min.
Compound wells: compound, DMSO 1%;
Negative and positive controls: 1% DMSO added;
Blank controls: cell-free wells, PBS added.
2. After the incubation was completed, compound was transferred from the compound intermediate plate 2 to the cell plate at 40 μL per well, and the final concentration of H2O2 was 25 mM.
Compound wells: compound+25 mM H2O2
Positive and negative controls: 1% DMSO+25 mM H2O2
Blank controls: cell-free wells, PBS added
4. After the incubation was completed, the cell plate was washed once with PBS pre-cooled on ice and added with 100 μL of pre-cooled cell stationary solution per well. After the cell plate was left to stand at −20° C. for 10 min, the cell stationary solution was shaken off. 5. After being air-dried, the cell plate was washed with PBS at 200 μL per well, and then the PBS was discarded. 6. The cell plate was added with blocking solution at 100 μL per well and incubated at 25° C. for 30 min, after which the blocking solution was shaken off. 7. Anti-PAR antibody which was diluted in blocking solution at a ratio of 1:50, was added to the cell plate at 25 μL per well, and then the mixture was incubated at 25° C. for 60 min.
Negative control wells: blocking solution added at 25 μL/well
Blank control wells: blocking solution added at 25 μL/well
8. […] After removal of the liquid, corresponding fluorescence values were read on Envision: FITC: 480 nm and 530 nm; DAPI: 360 nm and 460 nm. […]

Compound | IC50 [1] | IC50 (PARylation)
CC1(c2ccc(-c3[nH]c4cc(F)cc5c4c3CONC5=O)cc2)CCCN1 (stereo not drawn) [Example 25_A] | > 10000 nM | 
CC1(c2ccc(-c3[nH]c4cc(F)cc5c4c3CONC5=O)cc2F)CCCN1 (single isomer, unassigned) [Example 26_A] | > 10000 nM | 25 nM
CC1(c2ccc(-c3[nH]c4cccc5c4c3CONC5=O)cc2)CCCN1 (stereo not drawn) [Example 6_A] | > 10000 nM | 19 nM
O=C1NOCc2c(-c3ccc(C4CCCN4)cc3)[nH]c3cc(F)cc1c23 (single isomer, unassigned) [Example 24_A] | > 10000 nM | 23 nM
O=C1NOCc2c(-c3ccc(C4CCCN4)c(F)c3)[nH]c3cccc1c23 (stereo not drawn) [Example 11_A] | > 10000 nM | 27 nM

From patent US20220144850A1, “INDOLO HEPTAMYL OXIME ANALOGUE AS PARP INHIBITOR” (Chia Tai Tianqing Pharmaceutical Group Co., Ltd., priority 2019, published 2022)
